As usually defined, the inhibition is the change of the read-out against control, counted positive when it falls.

The record followed here is ChEMBL document CHEMBL6114941, “Recent progress on small molecule TLR4 antagonist against triple-negative breast cancer progression and complications” (2024).

Holding throughout (format): functional
One test has as its system Ehrlich. Briefly: Antitumor activity against mouse Ehrlich cells implanted in BALB/c nude mouse assessed as increase in apoptotic cell death at 5 mg/kg, ip administered once daily for 7 days relative to control. As to conditions: time 7 day.
In test [1] the test system is MDA-MB-435. Briefly: Antiproliferative activity against human MDA-MB-435 cells assessed as inhibition of cell growth at 10 uM in presence of paclitaxel relative to control.
For test [2], the system named is MDA-MB-435. Briefly: Antiproliferative activity against human MDA-MB-435 cells assessed as inhibition of cell growth at 1 nM relative to control.

For the compound `COc1cc(/C=C/C(=O)/C=C/c2ccc(O)c(OC)c2)ccc1[O-].[Na+]`, in the test with Ehrlich, the Activity was determined as 30%. Turning to `CCc1ccc(/C=C/C(=O)/C=C(O)/C=C/c2ccc(OC)c(O)c2OC)c(CC)c1O`, the inhibition at 10 µM in the test on MDA-MB-435 [1] was found to be 45%. For `CC(=O)O[C@H]1C(=O)[C@@]2(C)[C@H]([C@H](OC(=O)c3ccccc3)[C@]3(O)C[C@H](OC(=O)[C@H](O)[C@@H](NC(=O)c4ccccc4)c4ccccc4)C(C)=C1C3(C)C)[C@]1(OC(C)=O)CO[C@@H]1C[C@@H]2O` [PACLITAXEL], the inhibition at 0.001 µM in the test with MDA-MB-435 [2] came to 97%.
